What was measured:
[1] = equivalent to dexamethasone 0.75 mg; cited from earlier work
LPS-GalN challenged mice = test: LPS-GalN model of fatal cytokine storm and sepsis; RJX, DEX or RJX+DEX 2 hours post LPS-GalN; assay type: in vivo, BALB/c mice; settings: for Censored: alive at 24 h; for Events: deaths within 24 h
[2] = RJX 0.7 ml/kg (n=20), DEX 0.6 mg/kg (n=10), or both (n=20)

For `C[C@]12CCC(=O)C=C1CC[C@@H]1[C@@H]2C(=O)C[C@@]2(C)[C@H]1CC[C@]2(O)C(=O)CO` [Cortisone], the “Approximate Equivalent Dose” value [1] is listed as 25 mg.
For `C[C@@H]1C[C@H]2[C@@H]3CCC4=CC(=O)C=C[C@]4(C)[C@@]3(F)[C@@H](O)C[C@]2(C)[C@@]1(O)C(=O)CO` [DEX, dexamethasone], the Censored (LPS-GalN challenged mice; DEX 0.1 mg/kg i.p. 2 h post LPS-GalN, n=6) was 1, the Median survival (LPS-GalN challenged mice; DEX 0.1 mg/kg, n=6) was 5.1 h and the “Proportion (24-h mortality)” value (LPS-GalN challenged mice; DEX 0.1 mg/kg, n=6) was 83.3%. For the same molecule, the Events (LPS-GalN challenged mice; DEX 0.1 mg/kg, n=6) was 5, the Censored (LPS-GalN challenged mice; DEX 0.6 mg/kg i.p. 2 h post LPS-GalN, n=6) was 3 and the Median survival (LPS-GalN challenged mice; DEX 0.6 mg/kg, n=6) was 15.0 h. The “Proportion (mortality)” value (LPS-GalN challenged mice; DEX 0.6 mg/kg, n=6) was 50.0%, the Events (LPS-GalN challenged mice; DEX 0.6 mg/kg, n=6) was 3 and the Censored (LPS-GalN challenged mice; DEX 6.0 mg/kg i.p. 2 h post LPS-GalN, n=6) was 4. For the same molecule, the “Proportion (mortality)” value (LPS-GalN challenged mice; DEX 6.0 mg/kg, n=6) was 33.3%, the Events (LPS-GalN challenged mice; DEX 6.0 mg/kg, n=6) was 2 and the “Proportion (mortality)” value (LPS-GalN challenged mice; [2]) was 50.0%. The Censored (LPS-GalN challenged mice; RJX 0.7 ml/kg (n=20), DEX 0.6 mg/kg (n=10), or both (n=20) 2 h post LPS-GalN) was 5, the Events (LPS-GalN challenged mice; [2]) was 5 and the “lung histopathological ALI scores, range” value (LPS-GalN challenged mice; RJX 0.7 ml/kg, DEX 6.0 mg/kg, alone or combined, n=6) was 1-3. For the same molecule, the “ALI score of representative mouse” value (LPS-GalN challenged mice; single dose at 2 hours post-LPS-GalN, sacrificed at 24 hours, FIG. 20) was 2.
In the case of `C[C@]12CCC(=O)C=C1CC[C@@H]1[C@@H]2[C@@H](O)C[C@@]2(C)[C@H]1CC[C@]2(O)C(=O)CO` [Hydrocortisone], the “Approximate Equivalent Dose” value [1] is given as 20 mg.
For `C[C@]12C=CC(=O)C=C1CC[C@@H]1[C@@H]2[C@@H](O)C[C@@]2(C)[C@H]1CC[C@]2(O)C(=O)CO` [Prednisolone], the “Approximate Equivalent Dose” value [1] is listed as 5 mg.
For `C[C@]12C=CC(=O)C=C1CC[C@H]1[C@@H]3C[C@@H](O)[C@](O)(C(=O)CO)[C@@]3(C)C[C@H](O)[C@@]12F` [Triamcinolone], the “Approximate Equivalent Dose” value [1] is listed as 4 mg.

— patent US20250268917A1, “PHARMACEUTICAL COMPOSITIONS AND METHODS FOR PREVENTION AND/OR TREATMENT OF INFLAMMATION” (REVEN PHARMACEUTICALS INC., priority 2020, published 2025)
